Where two headings read alike, the source gives them in different places.
Key:
[1] = test system: HCT116 cells treated with a GSK3β inhibitor; assay: cells; format: cell-based; conditions: for GSK3b inh pretreated_Viability ATP HCT116 IC50/EC50 / IC50: assay number 26, GSK3b inhibitor pretreated; for IC50: read-out: GSK3b inh pretreated_Viability ATP HCT116 summarized IC50
[2] = test system: ECFC/ADSC co-culture cell nuclei number
SNU-C1 = assay: cells; format: cell-based; conditions: for Basal_Viability ATP SNU-C1 IC50/EC50 / IC50: assay number 30; for IC50: read-out: Basal_Viability ATP SNU-C1 summarized IC50
HCT116 = assay: cells; format: cell-based; conditions: basal; for Basal_Viability ATP HCT116 IC50/EC50 / IC50: assay number 25; for IC50: read-out: Basal_Viability ATP HCT116 summarized IC50
RKO = assay: cells; format: cell-based; conditions: for Basal_Viability ATP RKO IC50/EC50 / IC50: assay number 29; for IC50: read-out: Basal_Viability ATP RKO summarized IC50
HT-29 = assay: cells; format: cell-based; conditions: for Basal_Viability ATP HT-29 IC50/EC50 / IC50: assay number 28; for IC50: read-out: Basal_Viability ATP HT-29 summarized IC50
DLD-1 = assay: cells; format: cell-based; conditions: for Basal_Viability ATP DLD-1 IC50/EC50 / IC50: assay number 23; for IC50: read-out: Basal_Viability ATP DLD-1 summarized IC50
SW480 = assay: cells; format: cell-based
[3] = test system: endothelial tube formation in co-cultures of ECFCs and ADSCs treated with VEGF; assay: cells; format: cell-based, human
Colo320 = assay: cells; format: cell-based; conditions: for Basal_Viability ATP Colo 320 IC50/EC50 / IC50: assay number 27; for IC50: read-out: Basal_Viability ATP Colo 320 summarized IC50
HeLa cells = assay: cells; format: cell-based;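 as to Hela CellCycMod PI 4N summarized IC50: value tracks stimulation of 4N DNA content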
[4] = assay number 24, concentration response

Row | Compound | GSK3b inh pretreated_Viability ATP HCT116 IC50/EC50 [1] [µM] | VEGF_ADSC\ECFC Angio Hoechst NucArea IC50/EC50 [2] [µM] | Basal_Viability ATP SNU-C1 IC50/EC50 (SNU-C1; basal) [µM] | Basal_Viability ATP HCT116 IC50/EC50 (HCT116) [µM] | Basal_Viability ATP RKO IC50/EC50 (RKO; basal) [µM] | Basal_Viability ATP HT-29 IC50/EC50 (HT-29; basal) [µM] | Basal_Viability ATP DLD-1 IC50/EC50 (DLD-1; basal) [µM] | Basal_Viability ATP SW480 IC50/EC50 (SW480; assay number 24, basal) [µM] | VEGF_ADSC\ECFC Angio CD31 TubeArea IC50/EC50 [3] [µM] | Basal_Viability ATP Colo 320 IC50/EC50 (Colo320; basal) [µM] | also measured
1 | CC(=O)N(CC(O)CN(C(C)=O)c1c(I)c(C(=O)NCC(O)CO)c(I)c(C(=O)NCC(O)CO)c1I)c1c(I)c(C(=O)NCC(O)CO)c(I)c(C(=O)NCC(O)CO)c1I (centres unmarked) [NCGC00179408-03] | > 20 | > 10 | > 20 | > 20 | > 20 | > 20 | > 20 | > 20 | > 10 | > 20 | –
2 | O=C(NC1CCN(CCc2c[nH]c3ccccc23)CC1)c1ccccc1 [NCGC00165810-02] | > 20 | > 10 | > 20 | – | > 20 | > 20 | > 20 | > 20 | > 10 | > 20 | –
3 | CC(CC=O)CCCC(C)(C)O (centres unmarked) [NCGC00181031-03] | > 20 | > 10 | > 20 | > 20 | > 20 | > 20 | > 20 | > 20 | > 10 | > 20 | –
4 | CCc1cccc(N(C)C(N)=Nc2cccc3ccccc23)c1.Cl [NCGC00015236-04] | > 20 | > 10 | > 20 | – | > 20 | > 20 | > 20 | > 20 | > 10 | > 20 | –
5 | Cl.NC1=NCC2c3ccccc3Cc3ccccc3N12 (centres unmarked) [NCGC00165791-04] | > 20 | > 10 | > 20 | > 20 | > 20 | > 20 | > 20 | > 20 | > 10 | > 20 | –
6 | CCCCCCOC(=O)c1cccnc1 [NCGC00160591-02] | – | > 10 | – | – | – | – | – | – | > 10 | – | GSK3b inh pretreated_Viability ATP HCT116 IC50/EC50 ([1]; concentration response): > 20 µM; Basal_Viability ATP SNU-C1 IC50/EC50 (SNU-C1; concentration response): > 20 µM; Basal_Viability ATP HCT116 IC50/EC50 (HCT116; concentration response): > 20 µM; Basal_Viability ATP RKO IC50/EC50 (RKO; concentration response): > 20 µM; Basal_Viability ATP HT-29 IC50/EC50 (HT-29; concentration response): > 20 µM; Basal_Viability ATP DLD-1 IC50/EC50 (DLD-1; concentration response): > 20 µM; Basal_Viability ATP SW480 IC50/EC50 (SW480; [4]): > 20 µM; Basal_Viability ATP Colo 320 IC50/EC50 (Colo320; concentration response): > 20 µM
7 | O=C(OCCO)c1ccccc1O [NCGC00159379-04] | – | > 10 | – | – | – | – | – | – | > 10 | – | GSK3b inh pretreated_Viability ATP HCT116 IC50/EC50 ([1]; concentration response): > 20 µM; Basal_Viability ATP SNU-C1 IC50/EC50 (SNU-C1; concentration response): > 20 µM; Basal_Viability ATP HCT116 IC50/EC50 (HCT116; concentration response): > 20 µM; Basal_Viability ATP RKO IC50/EC50 (RKO; concentration response): > 20 µM; Basal_Viability ATP HT-29 IC50/EC50 (HT-29; concentration response): > 20 µM; Basal_Viability ATP DLD-1 IC50/EC50 (DLD-1; concentration response): > 20 µM; Basal_Viability ATP SW480 IC50/EC50 (SW480; [4]): > 20 µM; Basal_Viability ATP Colo 320 IC50/EC50 (Colo320; concentration response): > 20 µM
8 | Cc1ccc2c(Br)cc(Br)c(O)c2n1 [NCGC00160566-02] | – | – | – | – | – | – | – | – | – | – | IC50 [1]: 1.03 µM; IC50 ([2]; read-out: VEGF_ADSC\ECFC Angio Hoechst NucArea summarized IC50): > 10 µM; IC50 (SNU-C1; basal): 12.8 µM; IC50 (HCT116): 1.16 µM; IC50 (RKO; basal): 0.311 µM; IC50 (HT-29; basal): > 6.67 µM; IC50 (DLD-1; basal): 4.77 µM; IC50 ([3]; read-out: VEGF_ADSC\ECFC Angio CD31 TubeArea summarized IC50): > 10 µM; IC50 (Colo320; basal): 0.001 µM
9 | O=C(O)CCc1nc2ccccc2[nH]1 [NCGC00013414-04] | – | – | – | – | – | – | – | – | – | – | IC50 [1]: 2.2 µM; IC50 (SNU-C1; basal): > 20 µM; IC50 (HCT116): > 20 µM; IC50 (RKO; basal): > 20 µM; IC50 (HT-29; basal): > 20 µM; IC50 (HeLa cells; assay number 14, 2N, read-out: Hela CellCycMod PI 2N summarized IC50): > 10 µM; IC50 (HeLa cells; assay number 15, S phase, read-out: Hela CellCycMod PI S Phase summarized IC50): > 10 µM; IC50 (HeLa cells; assay number 16, 4N, read-out: Hela CellCycMod PI 4N summarized IC50): > 10 µM; IC50 (HeLa cells; assay number 17, MI, read-out: Hela CellCycMod PI MI summarized IC50): > 10 µM; IC50 (HeLa cells; assay number 18, cell number, read-out: Hela CellCycMod PI Cell Number summarized IC50): > 10 µM; IC50 (DLD-1; basal): 2.42 µM; IC50 (SW480; assay number 24, basal, read-out: Basal_Viability ATP SW480 summarized IC50): > 20 µM; IC50 (Colo320; basal): > 20 µM
10 | CN1CCC(Nc2ncc3ncnc(Nc4ccc(F)c(Cl)c4)c3n2)CC1 [NCGC00161422-04] | 3.384 | – | – | > 20 | – | – | – | – | – | – | Basal_Viability ATP SNU-C1 IC50/EC50 (SNU-C1): 11.9566 µM; Basal_Viability ATP RKO IC50/EC50 (RKO): 3.167 µM; Basal_Viability ATP HT-29 IC50/EC50 (HT-29): 4.003 µM; Hela CellCycMod PI 2N IC50/EC50 (HeLa cells; assay number 14, 2N): > 10 µM; Hela CellCycMod PI 4N IC50/EC50 (HeLa cells; assay number 16, 4N): > 10 µM; Hela CellCycMod PI MI IC50/EC50 (HeLa cells; assay number 17, MI): > 10 µM; Hela CellCycMod PI Cell Number IC50/EC50 (HeLa cells; assay number 18, cell number): > 10 µM; Basal_Viability ATP DLD-1 IC50/EC50 (DLD-1): 2.292 µM; Basal_Viability ATP SW480 IC50/EC50 (SW480; assay number 24): 2.346 µM; Basal_Viability ATP Colo 320 IC50/EC50 (Colo320): 11.6683 µM
11 | CC[C@H]1CN2CCc3cc(OC)c(OC)cc3[C@@H]2C[C@@H]1C[C@H]1NCCc2cc(OC)c(OC)cc21 [NCGC00024379-16] | 0.001 | – | 0.00228 | 0.06147 | 0.00831 | 0.01634 | 0.01158 | 0.001 | – | 0.0221 | Hela CellCycMod PI 2N IC50/EC50 (HeLa cells; assay number 14, 2N): > 10 µM; Hela CellCycMod PI 4N IC50/EC50 (HeLa cells; assay number 16, 4N): > 10 µM; Hela CellCycMod PI MI IC50/EC50 (HeLa cells; assay number 17, MI): 0.9477 µM; Hela CellCycMod PI Cell Number IC50/EC50 (HeLa cells; assay number 18, cell number): 0.03266 µM
12 | CCC(COC(=O)c1cc(OC)c(OC)c(OC)c1)(c1ccccc1)N(C)C.O=C(O)/C=C\C(=O)O (centres unmarked) [NCGC00018269-05] | 1.615 | – | 2.4514 | > 20 | 0.1424 | > 20 | > 20 | > 20 | – | > 20 | Hela CellCycMod PI 2N IC50/EC50 (HeLa cells; assay number 14, 2N): > 10 µM; Hela CellCycMod PI S Phase IC50/EC50 (HeLa cells; assay number 15, S phase): > 10 µM; Hela CellCycMod PI 4N IC50/EC50 (HeLa cells; assay number 16, 4N): > 10 µM; Hela CellCycMod PI MI IC50/EC50 (HeLa cells; assay number 17, MI): > 10 µM; Hela CellCycMod PI Cell Number IC50/EC50 (HeLa cells; assay number 18, cell number): > 10 µM
13 | CCN1/C(=C/C=C/c2sc3ccccc3[n+]2CC)Sc2ccccc21.[I-] [NCGC00166288-02] | – | – | – | – | – | – | – | – | – | – | IC50/EC50, GSK3b inh pretreated_Viability ATP HCT116 (assay number 26) ([1]; GSK3b inh pretreated): 0.00875 µM; IC50/EC50, Basal_Viability ATP SNU-C1 (assay number 30) (SNU-C1; basal): 0.01721 µM; IC50/EC50, Basal_Viability ATP HCT116 (assay number 25) (HCT116): 0.00957 µM; IC50/EC50, Basal_Viability ATP RKO (assay number 29) (RKO; basal): 0.00898 µM; IC50/EC50, Basal_Viability ATP HT-29 (assay number 28) (HT-29; basal): 0.00838 µM; IC50/EC50, Hela CellCycMod PI 2N (assay number 14) (HeLa cells; 2N): 8.506 µM; IC50/EC50, Hela CellCycMod PI 4N (assay number 16) (HeLa cells; 4N): > 10 µM; IC50/EC50, Hela CellCycMod PI Cell Number (assay number 18) (HeLa cells; Cell Number): 0.03604 µM; IC50/EC50, Hela CellCycMod PI MI (assay number 17) (HeLa cells; MI): 4.476 µM; IC50/EC50, Hela CellCycMod PI S Phase (assay number 15) (HeLa cells; S Phase): > 10 µM; IC50/EC50, Basal_Viability ATP DLD-1 (assay number 23) (DLD-1; basal): 0.0148 µM; IC50/EC50, Basal_Viability ATP SW480 (assay number 24) (SW480; basal): 0.172 µM; IC50/EC50, Basal_Viability ATP Colo 320 (assay number 27) (Colo320; basal): 0.562 µM

From article PMC4503722, “Novel Phenotypic Outcomes Identified for a Public Collection of Approved Drugs from a Publicly Accessible Panel of Assays” (PLoS ONE, 2015)
